Data published in paper PMC5145856 (Frontiers in Cellular Neuroscience, 2016).
“And” between values parts separate entries of the source, which are not always exact repeats. Equal values may be shown once. Read-outs that look alike come from different tables or passages of the source.

Columns and labels:
OR53/ORco = OR53/ORco (Anopheles gambiae, UniProt A0ABK8FS74+Q7QCC7); type: cell-based
OR9/ORco = OR9/ORco (Anopheles gambiae, UniProt A0ABK8FPD1+Q7QCC7); type: cell-based
ORco [1] = target: T1, ORco (Anopheles gambiae, UniProt Q7QCC7); set-up: method as in Tsitoura et al., 2015; conditions: ORco homomer; ref Tsitoura et al., 2015; cited from earlier work
T1 construct: expressed in transfected cells; host or cells: Trichoplusia ni BTI-Tn 5B1-4 HighFive (Hi5) cells, transient transfection with pEIA.ORco and pEIA.Photina
T1 sequence (Q7QCC7 1-478): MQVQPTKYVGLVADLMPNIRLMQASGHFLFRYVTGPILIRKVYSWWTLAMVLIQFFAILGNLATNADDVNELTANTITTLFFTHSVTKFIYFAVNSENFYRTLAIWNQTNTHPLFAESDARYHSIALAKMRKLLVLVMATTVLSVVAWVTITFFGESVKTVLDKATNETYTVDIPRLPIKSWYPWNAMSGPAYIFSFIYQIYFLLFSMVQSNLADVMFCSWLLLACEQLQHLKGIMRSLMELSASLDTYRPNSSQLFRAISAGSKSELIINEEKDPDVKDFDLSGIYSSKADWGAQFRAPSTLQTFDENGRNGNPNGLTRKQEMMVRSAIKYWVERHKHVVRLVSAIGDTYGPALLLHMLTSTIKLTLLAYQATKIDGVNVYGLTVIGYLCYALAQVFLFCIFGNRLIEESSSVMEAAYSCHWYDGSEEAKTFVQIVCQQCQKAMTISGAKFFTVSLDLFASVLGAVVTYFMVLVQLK

OR1/ORco [2] = target: T2, OR1/ORco (Anopheles gambiae, UniProt Q7QCC7+Q8WTE7); experiment: Photina Ca2+ bioluminescence assay in Hi5 cells expressing OR1/ORco; type: cell-based; conditions: for EC50: OR1+ORco, agonist alone
T2 construct: expressed in transfected cells; host or cells: Trichoplusia ni BTI-Tn 5B1-4 HighFive (Hi5) cells, transient transfection with pEIA plasmids
T2 sequence (Q8WTE7 1-417): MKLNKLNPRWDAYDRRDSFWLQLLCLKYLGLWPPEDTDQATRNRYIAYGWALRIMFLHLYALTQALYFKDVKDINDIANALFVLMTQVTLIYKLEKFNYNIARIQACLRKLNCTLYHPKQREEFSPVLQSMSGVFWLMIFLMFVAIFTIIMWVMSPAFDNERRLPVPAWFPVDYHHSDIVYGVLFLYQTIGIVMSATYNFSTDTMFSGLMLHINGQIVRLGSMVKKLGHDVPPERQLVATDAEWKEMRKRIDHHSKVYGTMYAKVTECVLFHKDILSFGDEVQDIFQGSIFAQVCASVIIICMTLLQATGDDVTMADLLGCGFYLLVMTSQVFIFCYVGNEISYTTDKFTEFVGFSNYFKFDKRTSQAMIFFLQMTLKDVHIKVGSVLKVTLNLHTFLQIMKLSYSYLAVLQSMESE
T2 sequence (Q7QCC7 1-478): T1 sequence (Q7QCC7 1-478)

OR2/ORco [3] = target: T3, OR2/ORco (Anopheles gambiae, UniProt Q7QCC7+Q8WTE6); experiment: Photina Ca2+ bioluminescence assay in Hi5 cells expressing OR2/ORco; type: cell-based; conditions: for EC50: OR2+ORco, agonist alone
T3 construct: expressed in transfected cells; host or cells: Trichoplusia ni BTI-Tn 5B1-4 HighFive (Hi5) cells, transient transfection with pEIA plasmids
T3 sequence (Q8WTE6 1-378): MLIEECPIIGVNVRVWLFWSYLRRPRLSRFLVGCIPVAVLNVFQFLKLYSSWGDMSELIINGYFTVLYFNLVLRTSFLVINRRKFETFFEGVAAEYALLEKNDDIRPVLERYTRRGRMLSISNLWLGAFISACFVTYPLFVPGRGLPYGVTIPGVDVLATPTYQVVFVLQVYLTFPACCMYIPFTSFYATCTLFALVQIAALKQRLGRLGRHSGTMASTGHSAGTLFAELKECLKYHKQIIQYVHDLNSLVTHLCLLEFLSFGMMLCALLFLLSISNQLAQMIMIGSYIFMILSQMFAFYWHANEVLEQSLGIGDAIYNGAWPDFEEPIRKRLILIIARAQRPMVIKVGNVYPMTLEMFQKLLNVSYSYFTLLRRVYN
T3 sequence (Q7QCC7 1-478): T1 sequence (Q7QCC7 1-478)

ORco [4] = target: T1, ORco; experiment: Photina Ca2+ bioluminescence assay in Hi5 cells expressing ORco alone; type: cell-based; conditions: ORco homomer
OR1/ORco [5] = target: T2, OR1/ORco; set-up: method as in Tsitoura et al., 2015; conditions: agonist alone, ref Tsitoura et al., 2015; cited from earlier work
OR2/ORco [6] = target: T3, OR2/ORco; set-up: method as in Tsitoura et al., 2015; conditions: agonist alone, ref Tsitoura et al., 2015; cited from earlier work
[7] = from the fitted dose-response curve, odorant alone

Sequence of OR53/ORco (A0ABK8FS74 entry or part of it, one chain of several): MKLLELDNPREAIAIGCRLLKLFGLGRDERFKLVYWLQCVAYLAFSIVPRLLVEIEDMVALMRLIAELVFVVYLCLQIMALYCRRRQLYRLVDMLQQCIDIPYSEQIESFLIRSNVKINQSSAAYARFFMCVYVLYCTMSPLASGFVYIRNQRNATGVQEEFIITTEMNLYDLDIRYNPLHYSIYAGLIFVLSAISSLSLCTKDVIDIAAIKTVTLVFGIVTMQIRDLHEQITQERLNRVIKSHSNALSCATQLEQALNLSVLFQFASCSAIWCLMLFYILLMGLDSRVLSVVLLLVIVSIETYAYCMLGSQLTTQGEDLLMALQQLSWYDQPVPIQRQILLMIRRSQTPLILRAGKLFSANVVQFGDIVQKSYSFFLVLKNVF
Sequence of OR9/ORco (A0ABK8FPD1 entry or part of it, one chain of several): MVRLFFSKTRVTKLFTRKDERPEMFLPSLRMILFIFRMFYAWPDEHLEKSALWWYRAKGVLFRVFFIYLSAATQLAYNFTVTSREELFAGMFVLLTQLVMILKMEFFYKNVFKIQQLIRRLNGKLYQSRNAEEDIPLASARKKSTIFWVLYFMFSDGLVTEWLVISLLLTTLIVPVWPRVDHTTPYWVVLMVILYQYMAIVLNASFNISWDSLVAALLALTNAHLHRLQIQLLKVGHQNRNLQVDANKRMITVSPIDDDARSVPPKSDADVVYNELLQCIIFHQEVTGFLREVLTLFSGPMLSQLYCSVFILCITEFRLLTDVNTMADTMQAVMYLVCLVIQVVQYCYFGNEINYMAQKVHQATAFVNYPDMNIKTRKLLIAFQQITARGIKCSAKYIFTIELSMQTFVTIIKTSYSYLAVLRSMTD

CCc1ccc(NC(=O)CSc2nnc(-c3ccncc3)n2CC)cc1 [OA, N-(4-ethylphenyl)-2-((4-ethyl-5-(4-pyridinyl)-4H-1,2,4-triazol-3-yl)thio)acetamide]
Relative efficacy* (relative to ORco) (OR53/ORco): 3.87 fold
Relative efficacy§ (potentiation relative to 100 µM ORx-specific odorant) (OR53/ORco): 140.85 fold and 140 fold and 141 fold
Relative efficacy§ (relative to 100 µM ORx-specific odorant) (OR53/ORco): 16.3 fold
EC50 (OR53/ORco; read-out: EC50): 57 µM and 56.6 µM
Potentiation magnitude at EC20 of odorant (OR9/ORco): ~ 10 fold
Relative efficacy# (relative to 100 µM ORx-specific odorant) (OR9/ORco): 10.4 fold
Relative efficacy* (relative to ORco) (OR9/ORco): 1,05 fold
Relative efficacy§ (potentiation relative to 100 µM ORx-specific odorant) (OR9/ORco): 4.94 fold
Relative efficacy§ (relative to 100 µM ORx-specific odorant) (OR9/ORco): 0.05 fold
EC50 (OR9/ORco; read-out: EC50): 79 µM and 78.7 µM
EC50 (ORco [1]): 59 µM and 58.9 µM
Potentiation magnitude at EC20 of odorant (OR1/ORco [2]; 10 µM OA (ORcoRAM2), 4MP at EC20 (427nM)): ~ 93 fold
Relative efficacy§ (relative to 100 µM ORx-specific odorant) (OR1/ORco [2]; 10 µM ORcoRAM2 alone vs 100 µM 4MP, Figure 3A): 2.88 fold
Relative efficacy§ (potentiation relative to 100 µM ORx-specific odorant) (OR1/ORco [2]; 10 µM ORcoRAM2 together with 100 µM 4MP vs 100 µM 4MP alone, Figure 3A): 32.45 fold
Relative efficacy# (relative to 100 µM ORx-specific odorant) (OR1/ORco [2]; 100 µM ORcoRAM2 alone vs 100 µM 4MP, Figure 1C): 10,22 fold
EC50 (OR1/ORco [2]): 57 µM and 56.6 µM
Potentiation magnitude at EC20 of odorant (OR2/ORco [3]): ~ 53 fold
Relative efficacy§ (relative to 100 µM ORx-specific odorant) (OR2/ORco [3]; 10 µM ORcoRAM2 alone vs 100 µM IN, Figure 3A): 0.57 fold
Relative efficacy§ (potentiation relative to 100 µM ORx-specific odorant) (OR2/ORco [3]; 10 µM ORcoRAM2 together with 100 µM IN vs 100 µM IN alone, Figure 3A): 8.09 fold
Relative efficacy* (relative to ORco) (OR2/ORco [3]; 100 µM ORcoRAM2, no odorant, OR2/ORco vs ORco homomer, Figure 1A): 3.2 fold
Relative efficacy# (relative to 100 µM ORx-specific odorant) (OR2/ORco [3]; 100 µM ORcoRAM2 alone vs 100 µM IN, Figure 1C): 6.22 fold
EC50 (OR2/ORco [3]): 44 µM and 43.6 µM
EC50 (ORco [4]): 97 µM and 96.6 µM
EC50 (ORco [4]; listed as OrcoRAM2): 100 µM

Cc1ccc(O)cc1 [4MP, 4-Methylphenol]
EC50 (OR1/ORco [2]): 1.2 µM
Concentration of the odorant at EC20 (OR1/ORco [2]; [7]): 0.427 µM
EC50 (OR1/ORco [5]): 2.8 µM

CCc1ccccc1O [2EP, 2-Ethylphenol]
Concentration of the odorant at EC20 (OR9/ORco): 35 µM
Functional response of receptor to odorant (OR9/ORco): responded
EC50 (OR9/ORco; OR9+ORco, agonist alone): 77.6 µM
pEC50 ± SE (OR9/ORco; OR9+ORco, agonist alone): 4.110 ± 0.009062
EC50 (OR9/ORco; OR9+ORco, agonist alone, listed as 2-ethylphenol): ~78 µM

C=CC(C)(O)CCC=C(C)C (stereo not shown) [LIN, Linalool]
Concentration of the odorant at EC20 (OR53/ORco): 105 µM
Functional response of receptor to odorant (OR53/ORco): clear responses
EC50 (OR53/ORco; OR53+ORco, agonist alone): 181 µM
pEC50 ± SE (OR53/ORco; OR53+ORco, agonist alone): 3.742 ± 0.04453
EC50 (OR53/ORco; OR53+ORco, agonist alone, listed as linalool): ~180 µM

c1ccc2[nH]ccc2c1 [IN, Indole]
EC50 (OR2/ORco [6]): 3.4 µM
EC50 (OR2/ORco [3]): 5.5 µM
Concentration of the odorant at EC20 (OR2/ORco [3]; [7]): 3.3 µM
